# Data published in patent US20100222396A1 (Novartis AG, priority 2009, published 2010).
# What was measured:
# [1] = biological target: T1, human orexin 1 receptor (hOx1R) (Homo sapiens, UniProt O43613); test: Calcium accumulation in cells (FLIPR), antagonism of orexin A, hOx1R; format: cell-based; details: for inhibition at 10 µM: measured at a concentration of 10 μM of compound (cells marked ^a); for Kd: cells expressing human orexin 1 receptor, IC50 vs orexin A converted by Cheng and Prusoff correction
# T1 construct: expressed in transfected cells
# T1 sequence (O43613 1-425): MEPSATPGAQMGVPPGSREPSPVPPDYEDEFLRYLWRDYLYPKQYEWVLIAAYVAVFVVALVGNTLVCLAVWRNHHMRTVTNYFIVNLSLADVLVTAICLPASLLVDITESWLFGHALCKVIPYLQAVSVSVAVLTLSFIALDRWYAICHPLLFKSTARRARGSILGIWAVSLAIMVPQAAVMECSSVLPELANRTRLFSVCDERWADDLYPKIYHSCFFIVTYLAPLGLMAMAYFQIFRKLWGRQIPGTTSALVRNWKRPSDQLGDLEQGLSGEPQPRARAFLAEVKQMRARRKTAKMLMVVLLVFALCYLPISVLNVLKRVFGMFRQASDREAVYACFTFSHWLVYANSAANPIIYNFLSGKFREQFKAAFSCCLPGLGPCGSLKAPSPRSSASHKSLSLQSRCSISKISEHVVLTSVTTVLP
# Summary of the method: (§1)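 Serum-starved receptor-expressing cells were loaded with Fluo-4-AM (2 μM) plus probenecid (0.1 mM) in HEPES buffer, pH 7.4, with 1% BSA, and Ca2+ fluorescence was read on FLIPR. Compounds (10^−9–10^−5 M) were added first, and orexin A was added one hour later to measure antagonism.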
# [2] = biological target: T2, human orexin 2 receptor (hOx2R) (Homo sapiens, UniProt O43614); test: Calcium accumulation in cells (FLIPR), antagonism of orexin A, hOx2R; format: cell-based; details: for inhibition at 10 µM: measured at a concentration of 10 μM of compound (cells marked ^a); for Kd: cells expressing human orexin 2 receptor, IC50 vs orexin A converted by Cheng and Prusoff correction
# T2 construct: expressed in transfected cells
# T2 sequence (O43614 1-444): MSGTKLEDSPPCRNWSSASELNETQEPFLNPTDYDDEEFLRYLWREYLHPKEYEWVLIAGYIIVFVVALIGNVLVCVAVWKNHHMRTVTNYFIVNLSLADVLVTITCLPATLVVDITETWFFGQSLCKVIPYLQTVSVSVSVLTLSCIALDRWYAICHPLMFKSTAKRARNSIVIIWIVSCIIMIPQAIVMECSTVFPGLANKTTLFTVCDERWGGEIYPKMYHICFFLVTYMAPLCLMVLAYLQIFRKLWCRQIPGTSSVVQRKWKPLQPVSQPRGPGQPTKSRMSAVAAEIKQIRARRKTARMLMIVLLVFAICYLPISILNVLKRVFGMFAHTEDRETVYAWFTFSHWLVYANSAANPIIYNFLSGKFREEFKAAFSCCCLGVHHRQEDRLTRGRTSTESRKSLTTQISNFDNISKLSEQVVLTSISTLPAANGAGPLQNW
# Summary of the method: as §1
# [3] = biological target: T2, human orexin 2 receptor (hOx2R); test: Radioligand binding assay ([125I]orexin A competition), hOx2R; details: CHO or HEK cell membranes, 1 h room temperature
# Summary of the method: (§2)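 Membranes from CHO or HEK cells expressing the human receptor, incubated 1 h at room temperature with […] [125I]orexin A and compound in HEPES pH 7.5 buffer with BSA, MgCl2, CaCl2 and tween.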
# [4] = biological target: T1, human orexin 1 receptor (hOx1R); test: Radioligand binding assay ([125I]orexin A competition), hOx1R; details: CHO or HEK cell membranes, 1 h room temperature
# Summary of the method: as §2
Compound,inhibition at 10 µM [1] [%],inhibition at 10 µM [2] [%],Kd [3] [nM],Kd [4] [nM],Kd [1] [nM],Kd [2] [nM]
"CN(C(=O)c1cccc2c1OCO2)[C@H](CCNC(=O)c1ccccn1)Cc1ccc(Cl)cc1 [Example 65, Pyridine-2-carboxylic acid [(S)-3-[(benzo[1,3]dioxole-4-carbonyl)-methyl-amino]-4-(4-chloro-phenyl)-butyl]-amide]",3,41,6980,> 10000,–,–
"CN(C(=O)c1ccc2[nH]ccc2c1)[C@H](CCNC(=O)c1ccccn1)Cc1ccccc1 [Example 7, 1H-Indole-5-carboxylic acid {(S)-1-benzyl-3-[(pyridine-2-carbonyl)-amino]-propyl}-methyl-amide]",–,–,41,7,16,40
"CN(C(=O)c1cccc2c1OCO2)[C@H](CCNC(=O)c1ccccn1)Cc1ccc(F)cc1 [Example 63, Pyridine-2-carboxylic acid [(S)-3-[(benzo[1,3]dioxole-4-carbonyl)-methyl-amino]-4-(4-fluoro-phenyl)-butyl]-amide]",0,24,5900,> 10000,–,–
"Cc1cccc(C(=O)N(C)[C@H](CCNC(=O)c2ccccn2)Cc2ccccc2)c1 [Example 96, Pyridine-2-carboxylic acid {(S)-3-[methyl-(3-methyl-benzoyl)-amino]-4-phenyl-butyl}-amide]",–,–,133,247,474,74
"Cc1cc(F)cc(C(=O)N(C)[C@H](CCNC(=O)c2cccn2C)Cc2ccccc2)c1 [Example 124, 1-Methyl-1H-pyrrole-2-carboxylic acid {(S)-3-[(3-fluoro-5-methyl-benzoyl)-methyl-amino]-4-phenyl-butyl}-amide]",–,–,39,599,710,13
"CN(C(=O)c1cc(C(F)(F)F)cc(C(F)(F)F)c1)[C@@H](CCNC(=O)c1ccccn1)Cc1ccccc1 [Example 74, Pyridine-2-carboxylic acid {(R)-3-[(3,5-bis-trifluoromethyl-benzoyl)-methyl-amino]-4-phenyl-butyl}-amide]",–,–,> 10000,> 10000,3260,1610
"CN(C(=O)c1ccc2c(c1)OCO2)[C@H](CCNC(=O)c1ccc2c(c1)OCO2)Cc1ccccc1 [Example 62, Benzo[1,3]dioxole-5-carboxylic acid {(S)-3-[(benzo[1,3]dioxole-5-carbonyl)-amino]-1-benzyl-propyl}-methyl-amide]",–,–,47,222,872,22
"CN(C(=O)c1cccc2c1OCC2)[C@H](CCNC(=O)c1ccccn1)Cc1ccccc1 [Example 46, Pyridine-2-carboxylic acid {(8)-3-[(2,3-dihydro-benzofuran-7-carbonyl)-methyl-amino]-4-phenyl-butyl}-amide]",–,–,870,397,1830,1000
"Cc1nc2sccn2c1C(=O)NCC[C@H](Cc1ccccc1)N(C)C(=O)c1ccc2c(c1)OCO2 [Example 82, 6-Methyl-imidazo[2,1-b]thiazole-5-carboxylic acid {(S)-3-[(benzo[1,3]dioxole-5-carbonyl)-methyl-amino]-4-phenyl-butyl}-amide]",–,–,12,163,963,2
"CN(C(=O)c1ccc2c(c1)OCC2)[C@H](CCNC(=O)c1cccn1C)Cc1ccccc1 [Example 117, 1-Methyl-1H-pyrrole-2-carboxylic acid {(S)-3-[(2,3-dihydro-benzofuran-6-carbonyl)-methyl-amino]-4-phenyl-butyl}-amide]",–,–,81,444,987,65
"CN(C(=O)c1ccc(Br)cc1)[C@H](CCNC(=O)c1ccccn1)Cc1ccccc1 [Example 99, Pyridine-2-carboxylic acid {(S)-3-[(4-bromo-benzoyl)-methyl-amino]-4-phenyl-butyl}-amide]",–,–,822,1940,1110,115
"CN(C(=O)c1ccc2occc2c1)[C@H](CCNC(=O)c1ccccn1)Cc1ccccc1 [Example 20, Pyridine-2-carboxylic acid {(8)-3-[(benzofuran-5-carbonyl)-methyl-amino]-4-phenyl-butyl}-amide]",–,–,168,163,413,123
"COc1ccc(C(=O)N(C)[C@H](CCNC(=O)c2nc3ccccc3n2C)Cc2ccccc2)cc1OC [Example 80, 1-Methyl-1H-benzoimidazole-2-carboxylic acid {(S)-3-[(3,4-dimethoxy-benzoyl)-methyl-amino]-4-phenyl-butyl}-amide]",–,–,98,59,541,97
"CN(C(=O)c1ccc2ccccc2c1)[C@@H](CCNC(=O)c1ccccn1)Cc1ccccc1 [Example 43, Pyridine-2-carboxylic acid {(R)-3-[methyl-(naphthalene-2-carbonyl)-amino]-4-phenyl-butyl}-amide]",–,–,607,2250,941,203
"CN(C(=O)c1cccc2c1OCO2)[C@H](CCNC(=O)c1nc2ccccc2n1C)Cc1ccccc1 [Example 19, 1-Methyl-1H-benzoimidazole-2-carboxylic acid {(8)-3-[(benzo[1,3]dioxole-4-carbonyl)-methyl-amino]-4-phenyl-butyl}-amide]",–,–,131,793,1120,114
"COc1cc(OC)cc(C(=O)N(C)[C@H](CCNC(=O)c2cccn2C)Cc2ccccc2)c1 [Example 104, 1-Methyl-1H-pyrrole-2-carboxylic acid {(S)-3-[(3,5-dimethoxy-benzoyl)-methyl-amino]-4-phenyl-butyl}-amide]",–,–,6,123,609,4
"CN(C(=O)c1ccccc1)[C@H](CCNC(=O)c1cccc2cccnc12)Cc1ccccc1 [Example 49, Quinoline-8-carboxylic acid [(S)-3-(benzoyl-methyl-amino)-4-phenyl-butyl]-amide]",9,–,1070,2450,–,414
"CN(C(=O)c1cccc2ccccc12)[C@H](CCNC(=O)c1ccccn1)Cc1ccccc1 [Example 6, Pyridine-2-carboxylic acid {(S)-3-[methyl-(naphthalene-1-carbonyl)-amino]-4-phenyl-butyl}-amide]",–,–,20,25,31,57
"CN(C(=O)c1ccc2c(c1)CCO2)[C@H](CCNC(=O)c1ccccn1)Cc1ccccc1 [Example 29, Pyridine-2-carboxylic acid {(8)-3-[(2,3-dihydro-benzofuran-5-carbonyl)-methyl-amino]-4-phenyl-butyl}-amide]",–,–,374,518,2190,157
"CN(C(=O)c1cc(C(F)(F)F)cc(C(F)(F)F)c1)C(CCNC(=O)c1ccccn1)Cc1ccc(Cl)cc1 (stereo not shown) [Example 16, Pyridine-2-carboxylic acid [3-[(3,5-bis-trifluoromethyl-benzoyl)-methyl-amino]-4-(4-chloro-phenyl)-butyl]-amide]",–,–,74,> 10000,1510,44
"1-Methyl-1H-pyrrole-2-carboxylic acid {(8)-3-[(3,5-difluoro-benzoyl)-methyl-amino]-4-phenyl-butyl}-amide [Example 118]",–,–,76,977,1070,55
"CN(C(=O)c1ccc2c(c1)OCO2)[C@H](CCNC(=O)c1nccn1C)Cc1ccccc1 [Example 78, 1-Methyl-1H-imidazole-2-carboxylic acid {(S)-3-[(benzo[1,3]dioxole-5-carbonyl)-methyl-amino]-4-phenyl-butyl}-amide]",–,–,24,660,1470,28
